Laboratory results reported in PubChem BioAssay (NCI).
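Each compound was tested at five concentrations against cells in 96-well plates for 48 hours. TGI: concentration producing complete growth inhibition.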

What was measured:
Assay in all cases: NCI-60 cell line screen, 48 h
[1] = system: 786-0 renal
[2] = system: A498 renal
[3] = system: A549 NSCLC
[4] = system: ACHN renal
[5] = system: BT-549 breast
[6] = system: CAKI-1 renal
[7] = system: CCRF-CEM leukemia
[8] = system: COLO 205 colon
[9] = system: DLD-1 colon
[10] = system: DMS 273 small cell lung
[11] = system: DU-145 prostate
[12] = system: EKVX NSCLC
[13] = system: HCC-2998 colon
[14] = system: HCT-116 colon
[15] = system: HCT-15 colon
[16] = system: HL-60(TB) leukemia
[17] = system: HOP-18 NSCLC
[18] = system: HOP-62 NSCLC
[19] = system: HOP-92 NSCLC
[20] = system: HS 578T breast
[21] = system: HT29 colon
[22] = system: IGROV1 ovarian
[23] = system: K-562 leukemia
[24] = system: KM12 colon
[25] = system: KM20L2 colon
[26] = system: LOX IMVI melanoma
[27] = system: LXFL 529 NSCLC
[28] = system: M14 melanoma
[29] = system: M19-MEL melanoma
[30] = system: MALME-3M melanoma
[31] = system: MCF7 breast
[32] = system: MDA-MB-231 breast
[33] = system: MDA-MB-435
[34] = system: MDA-N
[35] = system: MOLT-4 leukemia
[36] = system: NCI-H226 lung
[37] = system: NCI-H23 lung
[38] = system: NCI-H460 lung
[39] = system: NCI-H522 lung
[40] = system: OVCAR-3 ovarian
[41] = system: OVCAR-4 ovarian
[42] = system: OVCAR-5 ovarian
[43] = system: PC-3 prostate
[44] = system: RPMI-8226 leukemia
[45] = system: RXF 393 renal
[46] = system: SF-268 CNS
[47] = system: SF-295 CNS
[48] = system: SF-539 CNS
[49] = system: SK-MEL-2 melanoma
[50] = system: SK-MEL-28 melanoma
[51] = system: SK-MEL-5 melanoma
[52] = system: SK-OV-3 ovarian
[53] = system: SN12C renal
[54] = system: SNB-19 CNS
[55] = system: SNB-75 CNS
[56] = system: SNB-78 CNS
[57] = system: SR leukemia
[58] = system: SW-620 colon
[59] = system: T-47D breast
[60] = system: TK-10 renal
[61] = system: U251 CNS
[62] = system: UACC-257 melanoma
[63] = system: UACC-62 melanoma
[64] = system: UO-31 renal
[65] = system: XF 498 CNS
[66] = system: DMS 114 small cell lung
[67] = system: OVCAR-8 ovarian

C=C1C(=O)OC2C1CCC(C)C1C=CC(=O)C12C (stereo unspecified)
TGI [1]: 4.19 µM | TGI [2]: 26.7 µM | TGI [3]: 41.9 µM | TGI [4]: 3.25 µM | TGI [5]: 3.46 µM | TGI [6]: 6.75 µM | TGI [7]: 8.54 µM | TGI [8]: 5.74 µM | TGI [9]: 4.19 µM | TGI [10]: 23.5 µM | TGI [11]: 7.36 µM | TGI [12]: 25.2 µM | TGI [13]: 26.6 µM | TGI [14]: 3.91 µM | TGI [15]: 4.11 µM | TGI [16]: 4.85 µM | TGI [17]: 20.7 µM | TGI [18]: 41.1 µM | TGI [19]: 13.3 µM | TGI [20]: 15.4 µM | TGI [21]: 4.53 µM | TGI [22]: 19.4 µM | TGI [23]: 11.3 µM | TGI [24]: 5.96 µM | TGI [25]: 14.6 µM | TGI [26]: 5.25 µM | TGI [27]: 3.35 µM | TGI [28]: 4.85 µM | TGI [29]: 14.4 µM | TGI [30]: 7.47 µM | TGI [31]: 16.5 µM | TGI [32]: 4.83 µM | TGI [33]: 3.34 µM | TGI [34]: 3.88 µM | TGI [35]: 10.4 µM | TGI [36]: 13 µM | TGI [37]: 10.2 µM | TGI [38]: 18.9 µM | TGI [39]: 2390 nM | TGI [40]: 3.37 µM | TGI [41]: 16.6 µM | TGI [42]: 13.8 µM | TGI [43]: 17.3 µM | TGI [44]: > 25.3 µM | TGI [45]: 4.39 µM | TGI [46]: 39.5 µM | TGI [47]: 18.1 µM | TGI [48]: 8.33 µM | TGI [49]: 17.5 µM | TGI [50]: 4.93 µM | TGI [51]: 12 µM | TGI [52]: 98.8 µM | TGI [53]: 13.5 µM | TGI [54]: 46.1 µM | TGI [55]: 26.8 µM | TGI [56]: 23.3 µM | TGI [57]: 9.73 µM | TGI [58]: 4.68 µM | TGI [59]: 4.88 µM | TGI [60]: 10.6 µM | TGI [61]: 29.5 µM | TGI [62]: 4.61 µM | TGI [63]: 4.11 µM | TGI [64]: 9.26 µM | TGI [65]: 13.4 µM

O=C(O)NC(c1ccccc1)C(NC(=O)c1ccccc1)c1ccccc1 (stereo unspecified)
TGI [1]: > 100 µM | TGI [2]: > 100 µM | TGI [3]: > 100 µM | TGI [4]: > 100 µM | TGI [6]: > 100 µM | TGI [8]: > 100 µM | TGI [9]: > 100 µM | TGI [66]: > 100 µM | TGI [12]: > 100 µM | TGI [14]: > 100 µM | TGI [15]: > 100 µM | TGI [17]: > 100 µM | TGI [18]: > 100 µM | TGI [19]: > 100 µM | TGI [21]: > 100 µM | TGI [22]: > 100 µM | TGI [23]: > 100 µM | TGI [24]: > 100 µM | TGI [25]: > 100 µM | TGI [26]: > 100 µM | TGI [29]: > 100 µM | TGI [30]: > 100 µM | TGI [37]: > 100 µM | TGI [38]: > 100 µM | TGI [40]: > 100 µM | TGI [41]: > 100 µM | TGI [42]: > 100 µM | TGI [67]: > 100 µM | TGI [44]: > 100 µM | TGI [45]: > 100 µM | TGI [46]: > 100 µM | TGI [47]: > 100 µM | TGI [48]: > 100 µM | TGI [49]: > 100 µM | TGI [50]: > 100 µM | TGI [53]: > 100 µM | TGI [54]: > 100 µM | TGI [55]: > 100 µM | TGI [56]: > 100 µM | TGI [57]: > 100 µM | TGI [58]: > 100 µM | TGI [60]: > 100 µM | TGI [61]: > 100 µM | TGI [62]: > 100 µM | TGI [63]: > 100 µM | TGI [65]: > 100 µM
